From the METLIN SMRT retention time set (Domingo-Almenara et al. 2019) come the findings set out here.

Molecules are shown by their SMILES.

The data set in a line: gradient 5% acetonitrile 3 min, to 50% in 2 min, to 85% in 15 min, held 3 min, 100 µL/min. The note with it: column: Zorbax Extend-C18 2.1 x 50 mm; eluents: water / acetonitrile, 0.1% formic acid. A digest of the protocol:
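A Zorbax Extend-C18 column (2.1 × 50 mm, 1.8 μm) run at 100 μL/min with water and acetonitrile, both containing 0.1% formic acid, separated mixtures of ~100 pure standards. The HPLC was coupled to a quadrupole time-of-flight mass spectrometer operated in positive and negative ionization mode, with dead and dwell volumes of 40 μL and 900 μL. Each retention time was taken from a computationally picked adduct peak that was then manually inspected.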
For the molecule `Cc1cc(N2CCN(C(=O)c3cccc(C(F)(F)F)c3)CC2)nc2nncn12`, the RP-LC retention time was 627 s. The figure for `COC(=O)c1ccc(NC(=O)Cc2csc3nc(-c4ccc(OC)c(OC)c4)cn23)cc1` is 734 s; for `Cn1cc(CCNC(=O)Cc2ccccc2Cl)c2cccnc21` it is 700 s. `COc1ccc(Nc2nccc(NCCO)n2)cc1`: the RP-LC retention time was 610 s.

As for `CCc1noc(-c2ccnc(-n3ncc(C(=O)N4CCC(C)CC4)c3C)c2)n1`, the RP-LC retention time came to 1020 s. As for `COCCN1CCC2(CC1)CN(Cc1ccc(OC)c(C)c1)Cc1ccccc1O2`, the RP-LC retention time is 598 s.

For `CC(C)NC(=O)c1c(OCC2CC2)cc(=O)n2c1CCCCC2`, the RP-LC retention time turned out to be 673 s. The figure for `CC(C)(C)C(=O)Nc1ccc(NC(=O)C(C)(C)C)cc1` is 838 s; for `Cc1ccc(Cc2nc(-c3ccc(-n4ccnc4)nc3)no2)cc1` it is 759 s; for `CC(C)C(=O)c1cn(CC(=O)COc2ccc(Oc3ccccc3)cc2)c2ccc(C(=O)O)cc12` it is 1140 s. The figure for `Cc1cccc(S(=O)(=O)N2CCCC(OCc3nc(C)no3)C2)c1` (centres undefined) is 877 s. As to `Cc1ccc(Cl)cc1NC(=O)c1[nH]c(C)c(S(=O)(=O)N2CCCC2)c1C`, the RP-LC retention time worked out at 949 s. Regarding `CCc1nc(-c2cc(S(=O)(=O)N3CCC(C(=O)Nc4ccc(OC)cc4)CC3)c(C)s2)no1`, the RP-LC retention time is 1000 s. The figure for `O=C([C@@H]1C[C@H](F)CN1S(=O)(=O)c1cccc(F)c1)N1CCOCC1` is 676 s; for `O=C(c1ccccn1)N1CCCn2cc(-c3ccccc3)nc21` it is 620 s; for `CN1CCC(c2c[nH]c3ccccc23)C1` (centres undefined) it is 648 s. The figure for `CCNC(=O)c1cc2c(-c3cc(OCCN4CCCC4)c(Cl)cc3Cl)nc(N)nc2s1` is 711 s. As for `CC1(C(=O)NCc2ccccc2)CN(S(=O)(=O)c2ccccc2)CC(=O)N1c1ccc(Cl)cc1` (centres undefined), the RP-LC retention time was 956 s. As to `O=c1ccc(N2CCCC(NS(=O)(=O)Cc3ccccc3)C2)n[nH]1` (centres undefined), the RP-LC retention time amounted to 654 s.

`COCc1cn(C2CN(C(=O)c3ccc(OC)cc3OC)C2)nn1` gave an RP-LC retention time of 622 s. The figure for `O=C(CS(=O)(=O)c1c[nH]c2ccccc12)Nc1ccc2c(c1)OCCO2` is 651 s. The figure for `CCOC(=O)C1CCCN(c2c(NCC3COc4ccccc4O3)c(=O)c2=O)C1` (centres undefined) is 796 s; for `COC(=O)c1c(NCCO)c2cccc(Cl)c2[nH]c1=O` it is 610 s. In turn, `CCN1C(=O)CCc2cc(NC(=O)c3ccn(CC)n3)ccc21` registered an RP-LC retention time of 701 s. `Cc1ccc(S(=O)(=O)N2CCC(n3cnc4c(C)cccc4c3=O)CC2)c(C)c1` registered an RP-LC retention time of 1060 s. As to `O=C(CNC(=O)c1ccc(=O)[nH]c1)NCC1CCCCC1`, the RP-LC retention time was determined as 599 s. The figure for `CC1Oc2ccccc2N(Cc2nc(-c3ccc4c(c3)OCO4)no2)C1=O` (centres undefined) is 1010 s. The figure for `O=S(=O)(NCc1cccnc1-c1ccc(F)cc1)c1cccc(Br)c1` is 800 s. The figure for `O=C(Cn1nc2c3sc(N4CCCCC4)nc3ncn2c1=O)Nc1ccc(Br)cc1` is 848 s. Turning to `CCOC(=O)C1CCN(C(=O)c2ccc(-c3nc4ccccc4n(CC(C)C)c3=O)cc2)CC1`, the RP-LC retention time worked out at 1060 s. In the case of `O=C(CCc1c(-c2ccc(Cl)cc2)nc2ccccn12)NCc1ccc2c(c1)OCO2`, the RP-LC retention time amounted to 654 s.

With `COc1ccc(-c2ncc3c(n2)CCN(S(=O)(=O)c2ccc(F)c(C)c2)C3)cc1`, the RP-LC retention time came to 1100 s. The molecule `O=C(NCC(c1cccnc1)N1CCc2ccccc21)C(=O)Nc1ccccc1[N+](=O)[O-]` (centres undefined) had an RP-LC retention time of 702 s.

The molecule `CCc1ccc(NC(=O)C2CCN(S(=O)(=O)c3cc(C(=O)N4CCOCC4)cs3)CC2)cc1` displayed an RP-LC retention time of 859 s. The figure for `COCc1cnc2c(c1SCc1ccc(F)cc1)c(=O)n(C)c(=O)n2C` is 997 s. `Cc1ccccc1N1OC2C(=O)N(c3ccc(F)cc3)C(=O)C2C1c1ccncc1` (centres undefined) gave an RP-LC retention time of 671 s. The figure for `COc1cccc(CN2CCC(Oc3ccccc3-c3nc(-c4ccncc4)no3)C2)n1` (centres undefined) is 686 s; for `CCc1cccc2cc([C@@H](O)CNC(C)(C)C)oc12` it is 737 s. `CCCn1c(=O)sc2cc(S(=O)(=O)N3CCC(C(=O)Nc4cc(C)ccc4C)CC3)ccc21` yielded an RP-LC retention time of 985 s.

`CCc1ccc(NC(=O)N2CCCC(C)(C(=O)NCc3ccccc3)C2)cc1` (centres undefined) had an RP-LC retention time of 878 s. In turn, `CCN1C(=O)CCc2cc(NC(=O)COc3ccc(F)cc3)ccc21` displayed an RP-LC retention time of 801 s. On to `COc1ccc(C(=O)Nc2ccc(-c3cn4ccc(C)nc4n3)cc2)cc1`, for which the RP-LC retention time worked out at 632 s. `COc1ccc(-c2c(C)noc2NC(C)=O)cc1S(=O)(=O)Nc1ccc(F)cc1` returned an RP-LC retention time of 736 s. `CCC(=O)N(C)CCc1noc(-c2ccc(C(=O)NCCN(CC)CC)cc2)n1`: the RP-LC retention time amounted to 597 s. The figure for `O=C(Cn1nc2n(c1=O)CCCC2)Nc1ccc(Br)cc1` is 703 s; for `O=C(NCc1cccc(C(F)(F)F)c1)C1CCN(c2ccc(SCc3ccccc3)nn2)CC1` it is 871 s; for `CCC(=O)N1CCC(N2CC(OCC3CC3)C23CCOCC3)CC1` (centres undefined) it is 577 s. The figure for `COc1cccc(-n2ccn3cc(-c4ccc(Br)cc4)nc3c2=O)c1` is 893 s; for `CCOCCCNC(=O)c1cc2n(n1)CCCN(Cc1ccccc1)C2=O` it is 724 s; for `Cc1cc(C)cc(C(=O)N2CC3CN(S(=O)(=O)c4ccccc4)CC(C2)O3)c1` it is 892 s. The figure for `COc1ccc(-c2nc3cc(C)ccn3c2NC(=O)COc2ccccc2)cc1` is 694 s. `O=C(Cn1nc2c(N3CCSCC3)nccn2c1=O)NCCc1ccc(Cl)cc1` gave an RP-LC retention time of 850 s. The figure for `Cc1cc(C)cc(-c2nnc(Cc3nc(-c4cccc(F)c4)no3)o2)c1` is 1150 s. On to `Cc1ccc(C)c(-c2cc3c(=O)n(Cc4nc(-c5ccccc5)no4)ncn3n2)c1`, for which the RP-LC retention time stood at 1200 s. Turning to `Cc1nnc(-c2coc(S(=O)(=O)N3CCCCC3C)c2)o1` (centres undefined), the RP-LC retention time amounted to 809 s.

For the molecule `Cc1cccc(-c2cc(C(N)=O)c3ccccc3n2)c1`, the RP-LC retention time was determined as 816 s.

In turn, `Cc1cc(N2CCN(C(=O)Nc3ccc(C)c(Cl)c3)CC2)nc(N2CCOCC2)n1` displayed an RP-LC retention time of 688 s. The figure for `CCOC(=O)C1=C(CN2CCC(Cc3ccccc3)CC2)NC(=O)NC1c1cccs1` (centres undefined) is 884 s. The figure for `CCc1nc(-c2ccc(C(=O)NC)cc2)no1` is 690 s; for `COc1cccc(NS(=O)(=O)c2ccc3c(c2)C(=O)N(C)c2ncccc2O3)c1` it is 889 s.

In the case of `CC1=C(c2ccc(Cl)cc2)S(=O)(=O)N=C1N1CCCN(C(=O)NC(C)C)CC1`, the RP-LC retention time is 780 s. Turning to `CNC(=O)C1CCCN(c2nc3ncn(CC(=O)Nc4ccc(F)cc4)c(=O)c3s2)C1` (centres undefined), the RP-LC retention time worked out at 634 s. Regarding `Cc1cc2c(cc1S(=O)(=O)N1CCCC1C(=O)Nc1ccc(C(F)(F)F)cc1)OCC(=O)N2` (centres undefined), the RP-LC retention time is 873 s. The figure for `CCC(C)(C)C(=O)NC1CCN(C2=NS(=O)(=O)C(c3cccc(Cl)c3)=C2C)CC1` is 915 s; for `CCN1CCN(c2cc(C)c3cc(NC(=O)/C=C/c4ccc(OC(C)C)cc4)ccc3n2)CC1` it is 646 s; for `CCOc1ccc(CNC(=O)C2CCN(S(=O)(=O)c3ccc4c(c3)CCCC(=O)N4)CC2)cc1` it is 756 s.

As for `CCC1CN2C=Nc3oc(C)c(C(=O)Nc4ccccc4OC)c3C2=N1` (centres undefined), the RP-LC retention time was 668 s.

`CCc1cccc(C)c1NC(=O)Cn1cnc2c(sc3nc(-c4ccccc4)ccc32)c1=O`: the RP-LC retention time was 1070 s.

`N#Cc1cccc(CN2CCC3(CCC3O)CC2)c1` (centres undefined) had an RP-LC retention time of 565 s. The figure for `Cc1nc(-c2csc(S(=O)(=O)N3CCCC(C(=O)Nc4ccc(Cl)cc4)C3)c2)no1` (centres undefined) is 1040 s; for `O=C(C1CCCN(c2ccc(-c3ccccc3)nn2)C1)N1CCN(c2ccccn2)CC1` (centres undefined) it is 576 s; for `Cc1cc(C)cc(NC(=O)CSc2ccc(N3CCCC(C(=O)NC4CC4)C3)nn2)c1` (centres undefined) it is 690 s. `COCCC1(NC(=O)C2CCOCC2)CCN(C(=O)C2CC=CC2)CC1` displayed an RP-LC retention time of 632 s. Consider `O=C(Nc1ccc(Cl)cc1Cl)c1ccc(Br)cc1F`, for which the RP-LC retention time worked out at 1360 s.

As for `Cc1ccc(C)c(NS(=O)(=O)c2cc3n(c2)CCN(CC(C)C)C3=O)c1`, the RP-LC retention time was 848 s. The figure for `Cc1ccn2cc(-c3ccc(NS(=O)(=O)c4ccc(I)cc4)cc3)nc2n1` is 701 s; for `CCn1c(=O)c(N2CCCC(C(=O)N3CCN(c4ccc(Cl)cc4)CC3)C2)nc2ccccc21` (centres undefined) it is 1230 s; for `CCCn1cc(CCNS(=O)(=O)c2ccc(C)cc2C)c2cccnc21` it is 924 s. The figure for `CC(COc1ccc(C(C)C)cc1)NC(=O)c1cccs1` (centres undefined) is 998 s.
